Patent US20160075653A1, “NEMATICIDAL N-(PHENYLCYCLOALKYL)CARBOXAMIDES AND N-(PHENYLCYCLOALKYL)THIOCARBOXAMIDES” (BAYER CROPSCIENCE AKTIENGESELLSCHAFT, priority 2013, published 2016)

Assay: Measurement of log P values by HPLC on reversed phase columns (methods [a] pH 2.3, [b] pH 2.7, [c] pH 7.8)
Format: physicochemical
Method: Measurement of log P-Values:
Measurement of log P Values was Performed According EEC Directive 79/831 Annex V.A8 by HPLC (High Performance Liquid
Chromatography) on reversed phase columns with the following methods: ^[a] Measurement was done at pH 2.3 with 0.1% phosphoric acid and acetonitrile as eluent with a linear gradient from 10% acetonitrile to 95% acetonitrile. ^[b] measurement of LC-MS was done at pH 2.7 with 0.1% formic acid in water and with acetonitrile (contains 0.1% formic acid) as eluent with a linear gradient from 10% acetonitrile to 95% acetonitrile. ^[c] Measurement with LC-MS was done at pH 7.8 with 0.001 molar ammonium hydrogen carbonate solution in water as eluent with a linear gradient from 10% acetonitrile to 95% acetonitrile.
Calibration was done with linear alkan-2-ones (with 3 to 16 carbon atoms) with known log P-values (measurement of log P values using retention times with linear interpolation between successive alkanones). Lambda-max-values were determined using UV-spectra from 200 nm to 400 nm and the peak values of the chromatographic signals.

[1] = HPLC on reversed phase columns, method [b], pH 2.7
[2] = HPLC reversed phase, method [b] (pH 2.7)
[3] = HPLC on reversed phase column, method [b], pH 2.7

Row | SMILES | logP [1] | also measured
1 | CC(F)c1nn(C)cc1C(=O)NC1CCCC1c1ccc(F)c(F)c1 (mixture of isomers) [Example 126] | 2.84^[b] | –
2 | O=C(N[C@@H]1CCC[C@@H]1c1ccc(F)c(F)c1)c1ccsc1I (relative stereo) [Compound 56] | 3.29^[b] | –
3 | O=C(N[C@@H]1CCC[C@@H]1c1ccccc1F)c1ccc(I)s1 (relative stereo) [Compound 337] | – | logP [2]: 3.70^[b]; logP (HPLC reversed phase, method [c] pH 7.8): 3.58^[c];
4 | O=C(N[C@@H]1CC[C@@H]1c1c(F)cccc1F)c1ncccc1Cl (relative stereo) [Compound 438] | – | logP [2]: 2.73^[b]
5 | O=C(N[C@@H]1CC[C@H]1c1ccc(F)cc1C(F)(F)F)c1ccccc1I (relative stereo) [Compound 502] | – | logP [2]: 3.76^[b]
6 | O=C(N[C@@H]1CC[C@@H]1c1ccccc1Cl)c1sccc1I (relative stereo) [Compound 546] | – | logP [2]: 3.72^[b]
7 | O=C(N[C@@H]1C[C@@H]1c1ccc(Cl)cc1Cl)c1ccccc1I (relative stereo) [Compound 578] | – | logP [2]: 3.43^[b]
8 | O=C(N[C@@H]1C[C@@H]1c1ccc(Cl)cc1Cl)c1ccccc1Cl (relative stereo) [Compound 580] | – | logP [2]: 3.27^[b]
9 | O=C(N[C@@H]1C[C@@H]1c1ccc(Cl)cc1Cl)c1c(F)cccc1F (relative stereo) [Compound 581] | – | logP [2]: 3.44^[b]
10 | O=C(N[C@@H]1C[C@@H]1c1ccc(Cl)cc1Cl)c1sccc1I (relative stereo) [Compound 582] | – | logP [2]: 3.78^[b]
11 | O=C(N[C@@H]1CC[C@H]1c1cccc(F)c1C(F)(F)F)c1ccccc1Cl (relative stereo) [Compound 598] | – | logP [3]: 3.50^[b]
12 | O=C(N[C@@H]1CC[C@@H]1c1cccc(F)c1C(F)(F)F)c1ccccc1Br (relative stereo) [Compound 654] | – | logP [3]: 3.30^[b]
13 | O=C(N[C@@H]1C[C@]1(F)c1ccc(Cl)cc1)c1c(F)cccc1F (relative stereo) [Compound 750, rel-N-[(1R,2S)-2-(4-chlorophenyl)-2-fluorocyclopropyl]-2,6-difluorobenzamide] | – | chromatographic logP (HPLC-MS, method [b]: pH 2.7, 0.1% formic acid / acetonitrile; read-out: log P^b)): 2.69
14 | COc1nn(C)cc1C(=O)N[C@@H]1C[C@H]1c1ccccc1 (relative stereo) [Example 41] | 2.03^[b] | –
15 | Cc1nn(C)c(F)c1C(=O)N[C@@H]1C[C@H]1c1ccccc1 (relative stereo) [Example 42] | 1.99^[b] | –
16 | CCOc1nn(C)cc1C(=O)N[C@@H]1C[C@H]1c1ccccc1 (relative stereo) [Example 43] | 2.36^[b] | –
17 | O=C(N[C@@H]1C[C@H]1c1ccccc1)c1ccccc1I (relative stereo) [Example 44] | 2.93^[b] | –
18 | O=C(N[C@@H]1C[C@H]1c1ccccc1)c1ccccc1Br (relative stereo) [Example 45] | 2.79^[b] | –
19 | O=C(N[C@@H]1C[C@H]1c1ccccc1)c1ccccc1Cl (relative stereo) [Example 46] | 2.68^[b] | –
20 | O=C(N[C@@H]1C[C@H]1c1ccccc1)c1c(Cl)cccc1Cl (relative stereo) [Example 47] | 2.99^[b] | –
21 | O=C(N[C@@H]1C[C@H]1c1ccccc1Cl)c1c(Cl)cccc1Cl (relative stereo) [Example 50] | 3.32^[b] | –
22 | O=C(N[C@@H]1C[C@H]1c1ccccc1Cl)c1ccccc1C(F)(F)F (relative stereo) [Example 51] | 3.31^[b] | –
23 | Cn1cc(C(=O)N[C@@H]2CCC[C@@H]2c2ccc(F)c(F)c2)c(C(F)F)n1 (relative stereo) [Example 52] | 2.64^[b] | –
24 | CC(F)c1nn(C)cc1C(=O)N[C@@H]1CCC[C@@H]1c1ccc(F)c(F)c1 (relative stereo) [Example 53] | 2.62^[b] | –
25 | CCOc1nn(C)cc1C(=O)N[C@@H]1CCC[C@@H]1c1ccc(F)c(F)c1 (relative stereo) [Example 54] | 2.78^[b] | –

Row | SMILES | logP [1] | also measured
26 | Cc1nc(C(F)(F)F)c(C(=O)N[C@@H]2CCC[C@@H]2c2ccc(F)c(F)c2)s1 (relative stereo) [Example 55] | 3.19^[b] | –
27 | O=C(N[C@@H]1CCC[C@@H]1c1ccc(F)c(F)c1)C1=C(C(F)(F)F)OCCS1 (relative stereo) [Example 57] | 3.19^[b] | –
28 | O=C(N[C@@H]1CCC[C@@H]1c1ccc(F)c(F)c1)c1ccccc1I (relative stereo) [Example 58] | 3.31^[b] | –
29 | Cc1occc1C(=O)N[C@@H]1CCC[C@@H]1c1ccc(F)c(F)c1 (relative stereo) [Example 59] | 3.06^[b] | –
30 | Cc1nocc1C(=O)N[C@@H]1CCC[C@H]1c1ccc(F)c(F)c1 (relative stereo) [Example 60] | 2.78^[b] | –
31 | Cc1nocc1C(=O)N[C@@H]1CCC[C@@H]1c1ccc(F)c(F)c1 (relative stereo) [Example 61] | 2.69^[b] | –
32 | Cc1ncccc1C(=O)N[C@@H]1CCC[C@@H]1c1ccc(F)c(F)c1 (relative stereo) [Example 62] | 1.67^[b] | –
33 | Cc1ncccc1C(=O)N[C@@H]1CCC[C@H]1c1ccc(F)c(F)c1 (relative stereo) [Example 63] | 1.75^[b] | –
34 | Cc1cccnc1C(=O)N[C@@H]1CCC[C@@H]1c1ccc(F)c(F)c1 (relative stereo) [Example 64] | 3.31^[b] | –
35 | Cc1ncncc1C(=O)N[C@@H]1CCC[C@@H]1c1ccc(F)c(F)c1 (relative stereo) [Example 65] | 2.15^[b] | –
36 | O=C(N[C@@H]1CCC[C@@H]1c1ccc(F)c(F)c1)c1ccccc1F (relative stereo) [Example 66] | 3.33^[b] | –
37 | Cc1cc(C(=O)N[C@@H]2CCC[C@@H]2c2ccc(F)c(F)c2)c(C)o1 (relative stereo) [Example 67] | 3.35^[b] | –
38 | O=C(N[C@@H]1CCC[C@@H]1c1ccc(F)c(F)c1)c1cccnc1F (relative stereo) [Example 68] | 2.76^[b] | –
39 | O=C(N[C@@H]1CCC[C@@H]1c1ccc(F)c(F)c1)c1ccncc1F (relative stereo) [Example 69] | 2.59^[b] | –
40 | Cc1ccsc1C(=O)N[C@@H]1CCC[C@@H]1c1ccc(F)c(F)c1 (relative stereo) [Example 70] | 3.39^[b] | –
41 | Cc1ncc(C(=O)N[C@@H]2CCC[C@@H]2c2ccc(F)c(F)c2)s1 (relative stereo) [Example 71] | 2.57^[b] | –
42 | Cc1nnsc1C(=O)N[C@@H]1CCC[C@@H]1c1ccc(F)c(F)c1 (relative stereo) [Example 72] | 2.86^[b] | –
43 | N#Cc1ccccc1C(=O)N[C@@H]1CCC[C@@H]1c1ccc(F)c(F)c1 (relative stereo) [Example 73] | 3.04^[b] | –
44 | N#Cc1ncccc1C(=O)N[C@@H]1CCC[C@@H]1c1ccc(F)c(F)c1 (relative stereo) [Example 74] | 3.21^[b] | –
45 | COc1ccccc1C(=O)N[C@@H]1CCC[C@@H]1c1ccc(F)c(F)c1 (relative stereo) [Example 75] | 3.39^[b] | –
46 | COc1nn(C)cc1C(=O)N[C@@H]1CCC[C@@H]1c1ccc(F)c(F)c1 (relative stereo) [Example 76] | 2.64^[b] | –
47 | Cc1nn(C)c(F)c1C(=O)N[C@@H]1CCC[C@@H]1c1ccc(F)c(F)c1 (relative stereo) [Example 77] | 2.60^[b] | –
48 | COc1cscc1C(=O)N[C@@H]1CCC[C@@H]1c1ccc(F)c(F)c1 (relative stereo) [Example 78] | 3.29^[b] | –
49 | CC1=C(C(=O)N[C@@H]2CCC[C@@H]2c2ccc(F)c(F)c2)SCCO1 (relative stereo) [Example 79] | 3.15^[b] | –
